Calls of active or inactive are those of the source. No cut-off for these calls is given here.
Assays:
[1] = tested on: AGS; assay: Antiproliferative activity against human AGS cells assessed as reduction in cell viability incubated for 72 hrs by CCK-8 assay; assay type: functional, cell-based
[2] = tested on: MGC-803; assay: Antiproliferative activity against human MGC-803 cells assessed as reduction in cell viability incubated for 72 hrs by CCK-8 assay; assay type: functional, cell-based; conditions: MGC-803, 72 h
[3] = Metabolic stability in human liver microsomes assessed as half life; assay type: ADME, Microsome
[4] = molecular target: Signal transducer and activator of transcription 3 (Homo sapiens) (UniProt P40763); assay: Inhibition of STAT3 (unknown origin) transcriptional signaling transfected in HEK293T cells at 3 uM incubated for 24 hrs by firefly luciferase gene reporter assay; assay type: cell-based
Signal transducer and activator of transcription 3 (Homo sapiens), sequence (P40763 whole entry): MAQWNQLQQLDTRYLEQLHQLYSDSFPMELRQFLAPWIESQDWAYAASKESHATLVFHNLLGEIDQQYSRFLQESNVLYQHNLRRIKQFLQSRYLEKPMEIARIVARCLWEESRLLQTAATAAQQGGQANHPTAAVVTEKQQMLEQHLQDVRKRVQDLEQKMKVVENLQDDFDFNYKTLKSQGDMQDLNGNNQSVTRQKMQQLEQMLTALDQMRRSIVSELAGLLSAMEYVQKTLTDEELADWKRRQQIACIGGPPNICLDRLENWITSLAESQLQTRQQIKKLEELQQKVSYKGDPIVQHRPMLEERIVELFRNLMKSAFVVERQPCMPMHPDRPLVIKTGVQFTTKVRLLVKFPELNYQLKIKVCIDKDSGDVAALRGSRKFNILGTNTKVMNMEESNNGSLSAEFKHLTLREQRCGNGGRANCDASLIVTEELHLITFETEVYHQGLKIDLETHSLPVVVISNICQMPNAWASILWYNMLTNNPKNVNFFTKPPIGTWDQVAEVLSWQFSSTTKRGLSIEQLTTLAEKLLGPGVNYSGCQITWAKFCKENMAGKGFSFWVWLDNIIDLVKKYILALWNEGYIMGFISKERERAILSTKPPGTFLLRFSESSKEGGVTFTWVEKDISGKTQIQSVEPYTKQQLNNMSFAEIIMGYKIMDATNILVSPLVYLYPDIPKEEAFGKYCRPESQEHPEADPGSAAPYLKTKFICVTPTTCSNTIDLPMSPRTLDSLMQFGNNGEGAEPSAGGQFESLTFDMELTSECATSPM

[5] = tested on: MGC-803; assay: Antitumor activity against human MGC-803 cells xenografted in BALB/c mouse assessed as inhibition of tumor weight at 15 mg/kg,ip administrated for 21 consecutive days; assay type: functional, organism-based
[6] = tested on: MGC-803; assay: Inhibition of colony formation in human MGC-803 cells at 0.3 to 3 uM incubated for 10 to 15 days by crystal violet staining based assay; assay type: functional, cell-based; conditions: dose 0.3-3 µM, time 10-15 day
[7] = tested on: AGS; assay: Induction of apoptosis in human AGS cells assessed as necrotic cells at 1 uM incubated for 48 hrs by Annexin V-FITC/PI staining based flow cytometry method (reference value: 0.32 %); assay type: functional
[8] = tested on: AGS; assay: Induction of apoptosis in human AGS cells assessed as viable cells at 0.3 uM incubated for 48 hrs by Annexin V-FITC/PI staining based flow cytometry method (reference value: 94.8 %); assay type: functional; conditions: read-out: Activity
[9] = tested on: AGS; assay: Induction of apoptosis in human AGS cells assessed as viable cells at 3 uM incubated for 48 hrs by Annexin V-FITC/PI staining based flow cytometry method (reference value: 94.8 %); assay type: functional; conditions: read-out: Activity
[10] = tested on: AGS; assay: Induction of apoptosis in human AGS cells assessed as late apoptotic cells at 1 uM incubated for 48 hrs by Annexin V-FITC/PI staining based flow cytometry method (reference value: 2.46 %); assay type: functional
[11] = tested on: AGS; assay: Induction of apoptosis in human AGS cells assessed as late apoptotic cells at 0.3 uM incubated for 48 hrs by Annexin V-FITC/PI staining based flow cytometry method (reference value: 2.46 %); assay type: functional
[12] = tested on: AGS; assay: Induction of apoptosis in human AGS cells assessed as viable cells at 1 uM incubated for 48 hrs by Annexin V-FITC/PI staining based flow cytometry method (reference value: 94.8 %); assay type: functional; conditions: read-out: Activity
[13] = tested on: AGS; assay: Induction of apoptosis in human AGS cells assessed as early apoptotic cells at 0.3 uM incubated for 48 hrs by Annexin V-FITC/PI staining based flow cytometry method (reference value: 2.38 %); assay type: functional
[14] = tested on: AGS; assay: Induction of apoptosis in human AGS cells assessed as early apoptotic cells at 1 uM incubated for 48 hrs by Annexin V-FITC/PI staining based flow cytometry method (reference value: 2.38 %); assay type: functional
[15] = tested on: AGS; assay: Induction of apoptosis in human AGS cells assessed as necrotic cells at 3 uM incubated for 48 hrs by Annexin V-FITC/PI staining based flow cytometry method (reference value: 0.32 %); assay type: functional
[16] = tested on: AGS; assay: Inhibition of colony formation in human AGS cells at 0.3 to 3 uM incubated for 10 to 15 days by crystal violet staining based assay; assay type: functional, cell-based; conditions: dose 0.3-3 µM, time 10-15 day
[17] = tested on: MGC-803; assay: Antitumor activity against human MGC-803 cells xenografted in BALB/c mouse assessed as tumor growth inhibition at 15 mg/kg,ip administrated for 21 consecutive days relative to control; assay type: functional; conditions: read-out: TGI
[18] = molecular target: Signal transducer and activator of transcription 3 (Homo sapiens) (UniProt P40763); assay: Thermal stabilization of STAT3 in human AGS cells at 1 uM at 37 to 54 degreeC incubated for 1 hr by cellular thermal shift assay; assay type: cell-based
[19] = tested on: MGC-803; assay: Antitumor activity against human MGC-803 cells xenografted in BALB/c mouse assessed as inhibition of tumor volume at 15 mg/kg,ip administrated for 21 consecutive days; assay type: functional, organism-based
[20] = tested on: AGS; assay: Induction of apoptosis in human AGS cells assessed as early apoptotic cells at 3 uM incubated for 48 hrs by Annexin V-FITC/PI staining based flow cytometry method (reference value: 2.38 %); assay type: functional
[21] = tested on: AGS; assay: Induction of apoptosis in human AGS cells assessed as late apoptotic cells at 3 uM incubated for 48 hrs by Annexin V-FITC/PI staining based flow cytometry method (reference value: 2.46 %); assay type: functional
[22] = tested on: AGS; assay: Induction of apoptosis in human AGS cells assessed as necrotic cells at 0.3 uM incubated for 48 hrs by Annexin V-FITC/PI staining based flow cytometry method (reference value: 0.32 %); assay type: functional

Compound	IC50 [1]	IC50 [2]	half-life [3]	inhibition [4]	also measured
O=C(Nc1ccc(-c2cnc3cc(N4CCN(C5CC5)CC4)ccn23)cc1)c1ccc([N+](=O)[O-])o1	1920 nM	1650 nM			
COc1ccn2c(-c3ccc(NC(=O)c4ccc([N+](=O)[O-])o4)nc3)cnc2c1	> 20000 nM	> 20000 nM			
CN1CCCN(c2ccn3c(-c4ccc(NC(=O)c5ccc([N+](=O)[O-])o5)cc4)cnc3c2)CC1	2700 nM	3580 nM			
O=C(Nc1ccc(-c2cnc3cc(N4CCOCC4)ccn23)cc1)c1ccc([N+](=O)[O-])o1	2220 nM	7410 nM			
O=C(Nc1ccc(-c2cnc3cc(N4CCC4)ccn23)cc1)c1ccc([N+](=O)[O-])o1	> 5000 nM	> 5000 nM			
COc1ccn2c(-c3ccc(NC(=O)c4ccc([N+](=O)[O-])o4)c(C)c3C(F)(F)F)cnc2c1	2100 nM	2720 nM	50.1 min	Active	
COc1ccn2c(-c3ccc(NC(=O)c4ccc([N+](=O)[O-])o4)c(OC)c3)cnc2c1	3880 nM	7520 nM			
COc1ccn2c(-c3ccc(NC(=O)c4ccc([N+](=O)[O-])o4)cc3OC)cnc2c1	> 20000 nM	> 20000 nM			
CN1CCN(c2ccn3c(-c4ccc(NC(=O)c5ccc([N+](=O)[O-])o5)cc4)cnc3c2)CC1	2340 nM	1580 nM			
O=C(Nc1ccc(-c2cnc3cc(C4=CCNCC4)ccn23)cc1)c1ccc([N+](=O)[O-])o1	1280 nM	790 nM	12.2 min	Active	
O=C(Cc1c(-c2ccccc2)nc2ccccn12)Nc1ccc2c(c1)S(=O)(=O)C=C2	1550 nM		24.2 min	Active	inhibition [5]: Active; inhibition [6]: Dose-Dependent Effect; Activity [7]: 0.19%; viability at 0.3 µM [8]: 94.1%; viability at 3 µM [9]: 90.2%; Activity [10]: 4.84%; Activity [11]: 3.01%; viability at 1 µM [12]: 91.8%; Activity [13]: 2.59%; Activity [14]: 3.19%; Activity [15]: 0.5%; inhibition [16]: Dose-Dependent Effect; inhibition in vivo at 15 mg/kg [17]: 54.5%; Activity [18]: Active; inhibition [19]: Active; Activity [20]: 7.98%; Activity [21]: 1.3%; Activity [22]: 0.29%
O=C(Nc1ccc(-c2cnc3cc(N4CCS(=O)(=O)CC4)ccn23)cc1)c1ccc([N+](=O)[O-])o1	2130 nM	3040 nM			

Now from value to compound, other results behind:

IC50 [1]	IC50 [2]	half-life [3]	inhibition [4]	Compound	also measured
430 nM	1380 nM	39.9 min	Active	COc1ccn2c(-c3ccc(NC(=O)c4ccc([N+](=O)[O-])o4)c(C)c3)cnc2c1	
1700 nM	4620 nM			O=C(Nc1ccc(-c2cnc3cc(Cl)ccn23)cc1)c1ccc([N+](=O)[O-])o1	
410 nM	940 nM	13.5 min	Active	CC(=O)N1CC=C(c2ccn3c(-c4ccc(NC(=O)c5ccc([N+](=O)[O-])o5)cc4)cnc3c2)CC1	
700 nM	1080 nM	25.7 min	Active	COc1ccn2c(-c3ccc(NC(=O)c4ccc([N+](=O)[O-])o4)cc3F)cnc2c1	
730 nM	1830 nM	36.7 min	Active	Cc1cc(-c2cnc3ccccn23)ccc1NC(=O)c1ccc([N+](=O)[O-])o1	
360 nM	590 nM	24.7 min	Active	O=C(Nc1ccc(-c2cnc3ccccn23)cc1)c1ccc([N+](=O)[O-])o1	
1240 nM	1150 nM			O=C(Nc1ccc(-c2cnc3cc(N4CCCC4)ccn23)cc1)c1ccc([N+](=O)[O-])o1	
640 nM	1030 nM	43 min	Active	COc1ccn2c(-c3ccc(NC(=O)c4ccc([N+](=O)[O-])o4)cc3C)cnc2c1	
790 nM	1100 nM			O=C(Nc1ccc(-c2cnc3cc(C4=CCN(C5COC5)CC4)ccn23)cc1)c1ccc([N+](=O)[O-])o1	
1530 nM	3100 nM			CC1(O)CCN(c2ccn3c(-c4ccc(NC(=O)c5ccc([N+](=O)[O-])o5)cc4)cnc3c2)CC1	
560 nM	750 nM			O=C(Nc1ccc(-c2cnc3cc(Br)ccn23)cc1)c1ccc([N+](=O)[O-])o1	
720 nM	860 nM	28.3 min	Active	COc1ccn2c(-c3ccc(NC(=O)c4ccc([N+](=O)[O-])o4)cc3)cnc2c1	
710 nM	2910 nM	24.2 min	Active	COc1ccn2c(-c3ccc(NC(=O)c4ccc([N+](=O)[O-])o4)c(C(F)(F)F)c3)cnc2c1	
